Measured values published in PubChem BioAssay AID1963868 (Molecular Pharmacology Branch, DTP, NCI, 2024).

System: KRAS PDC tumor spheroids (HUVEC+MSC), viability
Assay: Anticancer human tumor 254851-301-R-J1-PDC patient-derived colon carcinoma cell line growth inhibition [KRAS2]
Settings: for IC50: curve of first compound; for viability, T/C: stronger effect = lower value
Summary of the method: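 Combination screen of spheroid viability in tumor-cell co-cultures with endothelial (HUVEC) and mesenchymal stem cell stroma. Each agent was tested in half-log dilutions, topping at clinical Cmax or at 10 microM without a known Cmax.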

[1] = second compound 0.1 µM, first compound 0.0316 µM
[2] = second compound 0.1 µM, first compound 0.1 µM
[3] = second compound 0.1 µM, first compound 0.316 µM
[4] = second compound 0.1 µM, first compound 1 µM
[5] = second compound 0.1 µM, first compound 3.16 µM
[6] = second compound 0.316 µM, first compound 0.0316 µM
[7] = second compound 0.316 µM, first compound 0.1 µM
[8] = second compound 0.316 µM, first compound 0.316 µM
[9] = second compound 0.316 µM, first compound 1 µM
[10] = second compound 0.316 µM, first compound 3.16 µM
[11] = second compound 1 µM, first compound 0.0316 µM
[12] = second compound 1 µM, first compound 0.1 µM
[13] = second compound 1 µM, first compound 0.316 µM
[14] = second compound 1 µM, first compound 1 µM
[15] = second compound 1 µM, first compound 3.16 µM
[16] = second compound 3.16 µM, first compound 0.0316 µM
[17] = second compound 3.16 µM, first compound 0.1 µM
[18] = second compound 3.16 µM, first compound 0.316 µM
[19] = second compound 3.16 µM, first compound 1 µM
[20] = second compound 3.16 µM, first compound 3.16 µM
[21] = second compound 10 µM, first compound 0.0316 µM
[22] = second compound 10 µM, first compound 0.1 µM
[23] = second compound 10 µM, first compound 0.316 µM
[24] = second compound 10 µM, first compound 1 µM
[25] = second compound 10 µM, first compound 3.16 µM
[26] = second compound 0.1 µM, first compound 0.01 µM
[27] = second compound 0.316 µM, first compound 0.01 µM
[28] = second compound 1 µM, first compound 0.01 µM
[29] = second compound 3.16 µM, first compound 0.01 µM
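Further: spheroids exposed to compounds for seven days before readout.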
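Wherever viability, T/C is given: 100% = DMSO vehicle control luminescence of the spheroids.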

## CCNC(=O)CC1N=C(c2ccc(Cl)cc2)c2cc(OC)ccc2-n2c(C)nnc21 (stereo not given) + COc1cc2nc(C)nc(NC(C)c3cc(N)cc(C(F)(F)F)c3)c2cc1OC1CCOC1
Second compound 0.1 µM
  IC50: 3470 nM
Second compound 0.316 µM
  IC50: 2530 nM
Second compound 1 µM
  IC50: 1940 nM
Second compound 3.16 µM
  IC50: 668 nM
Second compound 10 µM
  IC50: 712 nM
[1]
  viability, T/C: 115%
[2]
  viability, T/C: 123%
[3]
  viability, T/C: 97.6%
[4]
  viability, T/C: 84.8%
[5]
  viability, T/C: 45%
Second compound 0.1 µM, first compound 10 µM
  viability, T/C: 43%
[6]
  viability, T/C: 113%
[7]
  viability, T/C: 122%
[8]
  viability, T/C: 109%
[9]
  viability, T/C: 65.8%
[10]
  viability, T/C: 45.5%
Second compound 0.316 µM, first compound 10 µM
  viability, T/C: 45.5%
[11]
  viability, T/C: 103%
[12]
  viability, T/C: 111%
[13]
  viability, T/C: 98.6%
[14]
  viability, T/C: 65.9%
[15]
  viability, T/C: 39.2%
Second compound 1 µM, first compound 10 µM
  viability, T/C: 17.6%
[16]
  viability, T/C: 73%
[17]
  viability, T/C: 107%
[18]
  viability, T/C: 76%
[19]
  viability, T/C: 36.2%
[20]
  viability, T/C: 22.4%
Second compound 3.16 µM, first compound 10 µM
  viability, T/C: 26.4%
[21]
  viability, T/C: 79.9%
[22]
  viability, T/C: 81.6%
[23]
  viability, T/C: 74.8%
[24]
  viability, T/C: 39.2%
[25]
  viability, T/C: 22.9%
Second compound 10 µM, first compound 10 µM
  viability, T/C: 15.7%

## CC(=O)Nc1cccc(-n2c(=O)n(C3CC3)c(=O)c3c(Nc4ccc(I)cc4F)n(C)c(=O)c(C)c32)c1 + C=CC(=O)N1CCN(c2nc(OCC3CCCN3C)nc3c2CCN(c2cccc4cccc(C)c24)C3)CC1CC#N
Second compound 0.0316 µM
  IC50: 5.65 nM
Second compound 0.1 µM
  IC50: 5.79 nM
Second compound 0.316 µM
  IC50: 6.32 nM
Second compound 1 µM
  IC50: 5.71 nM
Second compound 3.16 µM
  IC50: 0.569 nM
Second compound 0.0316 µM, first compound 0.0001 µM
  viability, T/C: 103%
Second compound 0.0316 µM, first compound 0.000316 µM
  viability, T/C: 94.3%
Second compound 0.0316 µM, first compound 0.001 µM
  viability, T/C: 89.5%
Second compound 0.0316 µM, first compound 0.00316 µM
  viability, T/C: 72.1%
Second compound 0.0316 µM, first compound 0.01 µM
  viability, T/C: 29.2%
Second compound 0.0316 µM, first compound 0.0316 µM
  viability, T/C: 3.04%
Second compound 0.1 µM, first compound 0.0001 µM
  viability, T/C: 98.1%
Second compound 0.1 µM, first compound 0.000316 µM
  viability, T/C: 106%
Second compound 0.1 µM, first compound 0.001 µM
  viability, T/C: 95.4%
Second compound 0.1 µM, first compound 0.00316 µM
  viability, T/C: 77.9%
[26]
  viability, T/C: 25.1%
[1]
  viability, T/C: 2.8%
Second compound 0.316 µM, first compound 0.0001 µM
  viability, T/C: 102%
Second compound 0.316 µM, first compound 0.000316 µM
  viability, T/C: 114%
Second compound 0.316 µM, first compound 0.001 µM
  viability, T/C: 93.5%
Second compound 0.316 µM, first compound 0.00316 µM
  viability, T/C: 84.9%
[27]
  viability, T/C: 27.5%
[6]
  viability, T/C: 2.51%
Second compound 1 µM, first compound 0.0001 µM
  viability, T/C: 106%
Second compound 1 µM, first compound 0.000316 µM
  viability, T/C: 109%
Second compound 1 µM, first compound 0.001 µM
  viability, T/C: 92.6%
Second compound 1 µM, first compound 0.00316 µM
  viability, T/C: 83.4%
[28]
  viability, T/C: 19.1%
[11]
  viability, T/C: 1.86%
Second compound 3.16 µM, first compound 0.0001 µM
  viability, T/C: 76.9%
Second compound 3.16 µM, first compound 0.000316 µM
  viability, T/C: 52.7%
Second compound 3.16 µM, first compound 0.001 µM
  viability, T/C: 40.3%
Second compound 3.16 µM, first compound 0.00316 µM
  viability, T/C: 39.5%
[29]
  viability, T/C: 0.5%
[16]
  viability, T/C: 0.93%

## CC(=O)OC12COC1CC(O)C1(C)C(=O)C(O)C3=C(C)C(OC(=O)C(O)C(NC(=O)OC(C)(C)C)c4ccccc4)CC(O)(C(OC(=O)c4ccccc4)C21)C3(C)C (stereo not given) + C=CC(=O)N1CCN(c2nc(=O)n(-c3c(C)ccnc3C(C)C)c3nc(-c4c(O)cccc4F)c(F)cc23)C(C)C1
Second compound 0.1 µM
  IC50: 259 nM
Second compound 0.316 µM
  IC50: 243 nM
Second compound 1 µM
  IC50: 244 nM
Second compound 3.16 µM
  IC50: 253 nM
Second compound 10 µM
  IC50: 208 nM
[26]
  viability, T/C: 104%
[1]
  viability, T/C: 94.6%
[2]
  viability, T/C: 74.4%
[3]
  viability, T/C: 44.6%
[4]
  viability, T/C: 30.5%
[5]
  viability, T/C: 26.7%
[27]
  viability, T/C: 90.9%
[6]
  viability, T/C: 98%
[7]
  viability, T/C: 70.8%
[8]
  viability, T/C: 44.9%
[9]
  viability, T/C: 29.8%
[10]
  viability, T/C: 27.4%
[28]
  viability, T/C: 88.1%
[11]
  viability, T/C: 84.5%
[12]
  viability, T/C: 68.2%
[13]
  viability, T/C: 45%
[14]
  viability, T/C: 30%
[15]
  viability, T/C: 26.5%
[29]
  viability, T/C: 105%
[16]
  viability, T/C: 93.5%
[17]
  viability, T/C: 70.2%
[18]
  viability, T/C: 45.7%
[19]
  viability, T/C: 30.6%
[20]
  viability, T/C: 27.5%
Second compound 10 µM, first compound 0.01 µM
  viability, T/C: 93.5%
[21]
  viability, T/C: 87.1%
[22]
  viability, T/C: 70.9%
[23]
  viability, T/C: 38.1%
[24]
  viability, T/C: 26.1%
[25]
  viability, T/C: 24.1%
